Measurements taken from US5604234A, “Substituted thiol macrolactam immunomodulators” (Abbott Laboratories, priority 1995, dated 1997).

test system: human mixed lymphocyte reaction (MLR); assay: human mixed lymphocyte reaction (MLR), serum free variation; type: cell-based; details: Homo sapiens, Lymphocyte, serum-free medium AIM V, Table 3
Summary of the method: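 Serum-free variant of the human MLR: cultured in AIM V medium in place of RPMI 1640 with 10% heat-inactivated FBS. Responder and stimulator PBMCs, pooled from four donors, at final 5×10^5/mL and 2×10^6/mL respectively.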

`CC[C@@H]1/C=C(\C)C[C@H](C)C[C@H](OC)[C@H]2O[C@@](O)(C(=O)C(=O)N3CCCC[C@H]3C(=O)O[C@H](/C(C)=C/[C@@H]3CC[C@H](SC(=O)c4ccncc4)[C@H](OC)C3)[C@H](C)[C@@H](O)CC1=O)[C@H](C)C[C@@H]2OC` [Example 114] and `CC[C@@H]1/C=C(\C)C[C@H](C)C[C@H](OC)[C@H]2O[C@@](O)(C(=O)C(=O)N3CCCC[C@H]3C(=O)O[C@H](/C(C)=C/[C@@H]3CC[C@H](SC(=O)c4cccnc4)[C@H](OC)C3)[C@H](C)[C@@H](O)CC1=O)[C@H](C)C[C@@H]2OC` [Example 113] are within 1.5-fold of each other in IC50: 0.14 nM for the first, 0.15 nM for the second.

Compared with `CC[C@@H]1/C=C(\C)C[C@H](C)C[C@H](OC)[C@H]2O[C@@](O)(C(=O)C(=O)N3CCCC[C@H]3C(=O)O[C@H](/C(C)=C/[C@@H]3CC[C@H](SC(=O)c4ccccc4OC(C)=O)[C@H](OC)C3)[C@H](C)[C@@H](O)CC1=O)[C@H](C)C[C@@H]2OC` [Example 112], `CC[C@@H]1/C=C(\C)C[C@H](C)C[C@H](OC)[C@H]2O[C@@](O)(C(=O)C(=O)N3CCCC[C@H]3C(=O)O[C@H](/C(C)=C/[C@@H]3CC[C@H](SC(=O)c4ccccc4C#N)[C@H](OC)C3)[C@H](C)[C@@H](O)CC1=O)[C@H](C)C[C@@H]2OC` [Example 119] is 6.1-fold higher in IC50: 0.49 nM for the first, 3 nM for the second.

`CC[C@@H]1/C=C(\C)C[C@H](C)C[C@H](OC)[C@H]2O[C@@](O)(C(=O)C(=O)N3CCCC[C@H]3C(=O)O[C@H](/C(C)=C/[C@@H]3CC[C@H](SC(=O)CCNC(C)=O)[C@H](OC)C3)[C@H](C)[C@@H](O)CC1=O)[C@H](C)C[C@@H]2OC` [Example 116] and `CC[C@@H]1/C=C(\C)C[C@H](C)C[C@H](OC)[C@H]2O[C@@](O)(C(=O)C(=O)N3CCCC[C@H]3C(=O)O[C@H](/C(C)=C/[C@@H]3CC[C@H](SC(=O)C(C)NC(C)=O)[C@H](OC)C3)[C@H](C)[C@@H](O)CC1=O)[C@H](C)C[C@@H]2OC` (single isomer, unassigned) [Example 117A] are within 1.5-fold of each other in IC50: 3.1 nM for the first, 2.4 nM for the second.

First: CC[C@@H]1/C=C(\C)C[C@H](C)C[C@H](OC)[C@H]2O[C@@](O)(C(=O)C(=O)N3CCCC[C@H]3C(=O)O[C@H](/C(C)=C/[C@@H]3CC[C@H](SCC(C)=O)[C@H](OC)C3)[C@H](C)[C@@H](O)CC1=O)[C@H](C)C[C@@H]2OC [Example 80]
Second: CCC1C=C(C)CC(C)CC(OC)C2OC(O)(C(=O)C(=O)N3CCCCC3C(=O)OC(C(C)=CC3CCC(SCC(=O)NO)C(OC)C3)C(C)C(O)CC1=O)C(C)CC2OC (stereo not shown) [Example 38]
The IC50 of the first is 1.7-fold lower: 4.3 nM for the first, 7.5 nM for the second. The first is the more potent here.

`CCC(CC)OC(=O)CC[S+]([O-])[C@H]1CC[C@@H](/C=C(\C)[C@H]2OC(=O)[C@@H]3CCCCN3C(=O)C(=O)[C@]3(O)O[C@H]([C@@H](OC)C[C@@H](C)C/C(C)=C/[C@@H](CC)C(=O)C[C@H](O)[C@H]2C)[C@@H](OC)C[C@H]3C)C[C@H]1OC` (single isomer, unassigned) [Example 67] and `CC[C@@H]1/C=C(\C)C[C@H](C)C[C@H](OC)[C@H]2O[C@@](O)(C(=O)C(=O)N3CCCC[C@H]3C(=O)O[C@H](/C(C)=C/[C@@H]3CC[C@H]([S+]([O-])CCC(=O)OC(C)C)[C@H](OC)C3)[C@H](C)[C@@H](O)CC1=O)[C@H](C)C[C@@H]2OC` (single isomer, unassigned) [Example 65] are within 1.5-fold of each other in IC50: 25.6 nM for the first, 32 nM for the second.

First: CCC1C=C(C)CC(C)CC(OC)C2OC(O)(C(=O)C(=O)N3CCCCC3C(=O)OC(C(C)=CC3CCC(SCCC(=O)OCCO)C(OC)C3)C(C)C(O)CC1=O)C(C)CC2OC (stereo not shown) [Example 13]
Second: CCC1C=C(C)CC(C)CC(OC)C2OC(O)(C(=O)C(=O)N3CCCCC3C(=O)OC(C(C)=CC3CCC(SCC(=O)OCCO)C(OC)C3)C(C)C(O)CC1=O)C(C)CC2OC (stereo not shown) [Example 34]
The IC50 of the first is 20-fold lower: 3.1 nM for the first, 60.8 nM for the second.

Going from `CCC1C=C(C)CC(C)CC(OC)C2OC(O)(C(=O)C(=O)N3CCCCC3C(=O)OC(C(C)=CC3CCC(S)C(OC)C3)C(C)C(O)CC1=O)C(C)CC2OC` (stereo not drawn) [Example 8A, 32-epi-Thiol Ascomycin] to `C=CCS[C@H]1CC[C@@H](/C=C(\C)[C@H]2OC(=O)[C@@H]3CCCCN3C(=O)C(=O)[C@]3(O)O[C@H]([C@@H](OC)C[C@@H](C)C/C(C)=C/[C@@H](CC)C(=O)C[C@H](O)[C@H]2C)[C@@H](OC)C[C@H]3C)C[C@H]1OC` [Example 79], the IC50 rises from 0.75 nM to 14 nM (19-fold).

`CC[C@@H]1/C=C(\C)C[C@H](C)C[C@H](OC)[C@H]2O[C@@](O)(C(=O)C(=O)N3CCCC[C@H]3C(=O)O[C@H](/C(C)=C/[C@@H]3CC[C@H](SC(=O)c4ccccn4)[C@H](OC)C3)[C@H](C)[C@@H](O)CC1=O)[C@H](C)C[C@@H]2OC` [Example 120] and `CCC1C=C(C)CC(C)CC(OC)C2OC(O)(C(=O)C(=O)N3CCCCC3C(=O)OC(C(C)=CC3CCC(SCCC(=O)NO)C(OC)C3)C(C)C(O)CC1=O)C(C)CC2OC` (stereo not shown) [Example 24] are within 1.5-fold of each other in IC50: 1.2 nM for the first, 0.8 nM for the second.

Compared with `CCC1C=C(C)CC(C)CC(OC)C2OC(O)(C(=O)C(=O)N3CCCCC3C(=O)OC(C(C)=CC3CCC(SCC(=O)OCC(F)(F)F)C(OC)C3)C(C)C(O)CC1=O)C(C)CC2OC` (stereo not shown) [Example 33], `CCC1C=C(C)CC(C)CC(OC)C2OC(O)(C(=O)C(=O)N3CCCCC3C(=O)OC(C(C)=CC3CCC(SCCC(=O)OC(C)(C)C)C(OC)C3)C(C)C(O)CC1=O)C(C)CC2OC` (stereo not shown) [Example 15] is 31-fold lower in IC50: 47 nM for the first, 1.5 nM for the second.

`CCOC(=O)CNC(=O)S[C@H]1CC[C@@H](/C=C(\C)[C@H]2OC(=O)[C@@H]3CCCCN3C(=O)C(=O)[C@]3(O)O[C@H]([C@@H](OC)C[C@@H](C)C/C(C)=C/[C@@H](CC)C(=O)C[C@H](O)[C@H]2C)[C@@H](OC)C[C@H]3C)C[C@H]1OC` [Example 95] and `CCOC(=O)CS(=O)(=O)[C@H]1CC[C@@H](/C=C(\C)[C@H]2OC(=O)[C@@H]3CCCCN3C(=O)C(=O)[C@]3(O)O[C@H]([C@@H](OC)C[C@@H](C)C/C(C)=C/[C@@H](CC)C(=O)C[C@H](O)[C@H]2C)[C@@H](OC)C[C@H]3C)C[C@H]1OC` [Example 59] are within 1.5-fold of each other in IC50: 10.9 nM for the first, 7.5 nM for the second.

Going from `CCC1C=C(C)CC(C)CC(OC)C2OC(O)(C(=O)C(=O)N3CCCCC3C(=O)OC(C(C)=CC3CCC(SCCC(=O)N(O)C(C)C)C(OC)C3)C(C)C(O)CC1=O)C(C)CC2OC` (stereo not shown) [Example 26] to `CC[C@@H]1/C=C(\C)C[C@H](C)C[C@H](OC)[C@H]2O[C@@](O)(C(=O)C(=O)N3CCCC[C@H]3C(=O)O[C@H](/C(C)=C/[C@@H]3CC[C@H]([S+]([O-])CCC(=O)N(O)C(C)C)[C@H](OC)C3)[C@H](C)[C@@H](O)CC1=O)[C@H](C)C[C@@H]2OC` (stereo partly shown) [Example 72], the IC50 rises from 7 nM to 32.2 nM (4.6-fold).

First: CC[C@@H]1/C=C(\C)C[C@H](C)C[C@H](OC)[C@H]2O[C@@](O)(C(=O)C(=O)N3CCCC[C@H]3C(=O)O[C@H](/C(C)=C/[C@@H]3CC[C@H](S(=O)(=O)CCC(=O)OCc4ccccc4)[C@H](OC)C3)[C@H](C)[C@@H](O)CC1=O)[C@H](C)C[C@@H]2OC [Example 64]
Second: CC[C@@H]1/C=C(\C)C[C@H](C)C[C@H](OC)[C@H]2O[C@@](O)(C(=O)C(=O)N3CCCC[C@H]3C(=O)O[C@H](/C(C)=C/[C@@H]3CC[C@H]([S+]([O-])CCCO)[C@H](OC)C3)[C@H](C)[C@@H](O)CC1=O)[C@H](C)C[C@@H]2OC (stereo partly shown) [Example 52]
The IC50 of the first is 5.1-fold higher: 9.2 nM for the first, 1.8 nM for the second. The second is the more potent here.

same assay, conditions: serum-free medium AIM V, Table 3

Work on `CC[C@@H]1/C=C(\C)C[C@H](C)C[C@H](OC)[C@H]2O[C@@](O)(C(=O)C(=O)N3CCCC[C@H]3C(=O)O[C@H](/C(C)=C/[C@@H]3CC[C@H](SCC(C)=NNC(N)=O)[C@H](OC)C3)[C@H](C)[C@@H](O)CC1=O)[C@H](C)C[C@@H]2OC` [Example 81B] yielded an IC50 of 1.6 nM.
